Source: patent US20040266659A1, “[…] THAT ENHANCE RECALL AND LUCIDITY DURING DREAMING” (priority 2003, published 2004)
Read-outs that look alike come from different tables or passages of the source.

Legend:
lucid dreaming = test system: lucid dreaming
Source text: These include: 1. Using a cholinergic agonist (e.g., nicotine).

[1] = test system: normal volunteers self-selected for high dream recall and interest in lucid dreaming; assay: randomized, double blind, placebo-controlled crossover trial of donepizil for lucid dreaming; format: in vivo, human; conditions: for odds of lucid dreaming: placebo 0.031
Source text: Subjects collected dream content and other self-report measures on three nights, separated by a washout period of at least one week. […] After each spontaneous awakening during the three nights, Ss evaluated dream content on a range of measures including bizarreness, complexity, and intensity, affect, cognitive clarity, lucidity, and control. They also estimated sleep quality, insomnia, and degree of any adverse effects.

REM sleep = conditions: cited from earlier work
[2] = rivastigmin 6-12 mg dose, galantamine 8-16 mg

huperzine
outcome of test for lucid dreaming enhancement (lucid dreaming; dose correspondence with Aricept not yet worked out): promising results

CCN(C)C(=O)Oc1cccc([C@H](C)N(C)C)c1 [Exelon, rivastigmin]
efficacy compared with Aricept (lucid dreaming; [2]): work as well as | side effects compared with Aricept (lucid dreaming; [2]): perhaps fewer side effects

COc1cc2c(cc1OC)C(=O)C(CC1CCN(Cc3ccccc3)CC1)C2 (centres unmarked) [donepizil]
levels of dream variables, 5 mg dose vs placebo ([1]; 5 mg compared to placebo): significant elevations | odds of lucid dreaming ([1]; 5 mg): 0.429 | levels of dream variables, 10 mg dose vs 5 mg dose ([1]; 10 mg compared to 5 mg): significantly higher levels | odds of lucid dreaming ([1]; 10 mg): 0.754 | self-reported cognitive clarity, self-reflection and lucidity during dreaming, compared to placebo ([1]; both 5 and 10 mg dosages): significantly enhance | frequency of sleep paralysis ([1]; donepizil vs placebo): significantly elevated | Ss reporting one or more lucid dreams on the experimental nights ([1]; nine of 10 Ss, 5 or 10 mg at bedtime, only one S on a placebo night): 90% | estimated time awake during the night ([1]; of a 9.0 hr night, placebo 126 min, p<0.05): 176 min | incidence of adverse events, notably mild insomnia and gastrointestinal symptoms ([1]; primarily associated with the higher dose, two subjects nausea, one vomiting): low | cognitive clarity, lucidity, recall, control, bizarreness and visual vividness compared to placebo ([1]; self-report after each spontaneous awakening, donepizil vs placebo): significantly elevated | increase in estimated time awake during the night ([1]; vs placebo, 9.0 hr night, p<0.05): 40%

COC(=O)C1=CCCN(C)C1 [arecoline]
effect on REM sleep (REM sleep; scientific literature studies): triggering/intensification of REM sleep

C[N+](C)(C)CCOC(N)=O [carbachol]
effect on REM sleep (REM sleep; microinjection in certain locations of the brain, such as the Pons): elicits extended periods of REM sleep

COc1ccc2c3c1O[C@H]1C[C@@H](O)C=C[C@@]31CCN(C)C2 [galantamine]
side effects compared with Aricept (lucid dreaming; [2]): perhaps fewer side effects
